Patent US12215093B2, “Bicyclic carboxamides and methods of use thereof” (Tempest Therapeutics, Inc., priority 2018, dated 2025)

Assays:
EP4 = molecular target: T1, EP4 (Homo sapiens, UniProt P35408); assay: Functional calcium flux assay, EP4; assay type: cell-based; conditions: stably transfected HEK293 cells; PGE2 10 nM; read-out: EP4 Ca2+-flux assay IC50
T1 construct: host or cells: stably transfected HEK293 cells co-expressing a promiscuous G protein and a clytin variant
Procedure: Each receptor subtype has an additional promiscuous G protein added in order to couple the aforementioned receptor to the calcium signaling pathway. The parental cell line used also expresses a novel variant of clytin, a calcium-activated photo-protein, to enable sensitive luminescent detection. Briefly, cells were plated at 50,000 cells-per-well in black, clear bottom 96-well plates. The plated cells were allowed to sit at room temperature for 30 min prior to transferring to a humidified, 37° C., 5% CO2 incubator for 18 to 24 h. Assay buffer (HBSS with 20 mM HEPES) and loading buffer (assay buffer plus 10 μM coelenterazine) were prepared on the day of the assay. Assays were performed by aspirating media from the assay plate and washing once with assay buffer, then replacing with loading buffer and allowing the cells to incubate for 1.5 h at room temperature. Compounds were prepared in assay buffer at a 3× final concentration in non-binding plates. Compounds were added to the cell plates and incubated for 30 min at room temperature. The prostanoid receptor ligand PGE2 was prepared at a 4× dilution ratio for a final concentration of 10 nM. Plates were run on a Flexstation™ using a 100 ms integration luminescence protocol for a total of 60 sec with ligand addition at 15 sec. Data were obtained from relative light units as measured by area under the curve.

EP2 = EP2 (Homo sapiens, UniProt P43116);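 further: functional calcium flux assay in stably transfected HEK293 cells expressing EP2 coupled via a promiscuous G protein, clytin luminescence read as area under the curve, 30 min compound preincubation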
Sequence of EP2 (P43116 whole entry): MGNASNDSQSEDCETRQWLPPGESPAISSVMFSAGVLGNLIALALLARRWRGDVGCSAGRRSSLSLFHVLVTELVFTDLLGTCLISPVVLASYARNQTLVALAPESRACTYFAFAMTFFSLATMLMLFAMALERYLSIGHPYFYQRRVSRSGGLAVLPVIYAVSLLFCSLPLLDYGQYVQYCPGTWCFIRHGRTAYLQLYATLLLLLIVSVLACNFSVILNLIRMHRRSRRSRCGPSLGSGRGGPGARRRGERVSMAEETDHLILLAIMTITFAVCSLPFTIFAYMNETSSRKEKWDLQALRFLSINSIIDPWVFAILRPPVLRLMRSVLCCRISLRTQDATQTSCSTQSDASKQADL

T1 sequence (P35408 whole entry): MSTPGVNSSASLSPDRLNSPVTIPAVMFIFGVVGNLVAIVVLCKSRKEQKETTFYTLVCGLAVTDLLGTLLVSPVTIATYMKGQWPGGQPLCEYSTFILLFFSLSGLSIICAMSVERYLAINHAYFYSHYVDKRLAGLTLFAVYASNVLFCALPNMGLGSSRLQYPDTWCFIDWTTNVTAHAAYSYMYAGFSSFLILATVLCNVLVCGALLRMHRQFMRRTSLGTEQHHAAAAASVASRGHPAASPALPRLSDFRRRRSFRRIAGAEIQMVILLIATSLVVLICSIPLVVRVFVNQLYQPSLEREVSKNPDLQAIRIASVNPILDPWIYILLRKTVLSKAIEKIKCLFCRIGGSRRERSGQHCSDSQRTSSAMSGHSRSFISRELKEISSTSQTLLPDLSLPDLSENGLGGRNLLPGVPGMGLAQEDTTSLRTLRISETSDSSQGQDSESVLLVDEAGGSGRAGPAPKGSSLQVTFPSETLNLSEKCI

Row | SMILES | IC50 (EP4) [µM] | IC50 (EP2) [µM]
1 | CC(c1ccc(N2C[C@H]3C[C@H]3C2)cc1)n1ncc2c(Cl)ccc(C(=O)NC3CC4(C3)CC(C(=O)O)C4)c21 (single isomer, unassigned) [Example 132, (Sa)-6-(1-((R) or (S)-1-(4-((1R, 5S)-3-azabicyclo[3.1.0]hexan-3-yl)phenyl)ethyl)-4-chloro-1H-indazole-7-carboxamido)spiro[3.3]heptane-2-carboxylic acid] | 0.0022 | < 0.025
2 | O=C(O)CC1CC2(C1)CC(NC(=O)c1cc(Cl)cc3cnn(Cc4ccc(-c5ccccc5)c(F)c4)c13)C2 (centres unmarked) [Example 151, (Ra)-2-(6-(5-Chloro-1-((2-fluoro-[1,1′-biphenyl]-4-yl)methyl)-1H-indazole-7-carboxamido)spiro[3.3]heptan-2-yl)acetic acid] | < 0.001 | < 0.025
3 | COc1cccc(-c2ccc(C(C)n3ccc4c(F)ccc(C(=O)NC5CC6(C5)CC(C(=O)O)C6)c43)cc2)c1 (single isomer, unassigned) [Example 128, (Sa)-6-(4-fluoro-1-((R) or (S)-1-(3′-methoxy-[1,1′-biphenyl]-4-yl)-ethyl)-1H-indole-7-carboxamido)spiro[3.3]heptane-2-carboxylic acid] | 0.0019 | < 0.025
4 | COc1cc(C#N)cc(-c2ccc(C(C)n3ncc4cccc(C(=O)NC5CC6(C5)CC(C(=O)O)C6)c43)cc2)c1 (racemic) [Example 114, (Sa)-6-(1-((racemic)-1-(3′-cyano-5′-methoxy-[1,1′-biphenyl]-4-yl)-ethyl)-1H-indazole-7-carboxamido)spiro[3.3]heptane-2-carboxylic acid] | 0.0055 | 0.057
5 | CCOc1cc(-c2ccc(C(C)n3ccc4c(F)ccc(C(=O)NC5CC6(C5)CC(C(=O)O)C6)c43)cc2)ccn1 (single isomer, unassigned) [Example 129, (Sa)-6-(1-((R) or (S)-1-(4-(2-ethoxypyridin-4-yl)phenyl)-ethyl)-4-fluoro-1H-indole-7-carboxamido)spiro[3.3]heptane-2-carboxylic acid] | 0.003 | 0.061
6 | COc1cc(-c2ccc(Cn3ccc4c(F)ccc(C(=O)NC5CC6(CC(CC(=O)O)C6)C5)c43)cc2)ccn1 (centres unmarked) [Example 139, (Ra)-2-(6-(4-Fluoro-1-(4-(2-methoxypyridin-4-yl)benzyl)-1H-indole-7-carboxamido)spiro[3.3]heptan-2-yl)acetic acid] | < 0.001 | < 0.025
7 | COc1cc(C(=O)NC2CC3(CC(CC(=O)O)C3)C2)c2c(cnn2Cc2ccc(-c3ccccc3)cc2)c1 (centres unmarked) [Example 164, (Ra)-2-(6-(1-([1,1′-Biphenyl]-4-ylmethyl)-5-methoxy-1H-indazole-7-carboxamido)spiro[3.3]heptan-2-yl)acetic acid] | < 0.001 | < 0.025
8 | COc1cc(-c2ccc(Cn3ncc4cc(Cl)cc(C(=O)NC5CC6(C5)CC(C(=O)O)C6)c43)c(F)c2)ccn1 (centres unmarked) [Example 156, (Sa)-6-(5-Chloro-1-(2-fluoro-4-(2-methoxypyridin-4-yl)benzyl)-1H-indazole-7-carboxamido)spiro[3.3]heptane-2-carboxylic acid] | < 0.001 | < 0.025
9 | CCOc1ccc(-c2ccc(Cn3ccc4c(OC)ncc(C(=O)NC5CC6(C5)CC(C(=O)O)C6)c43)cc2)cn1 (centres unmarked) [Example 91, (Sa)-6-(1-(4-(6-ethoxypyridin-3-yl)benzyl)-4-methoxy-1H-pyrrolo[3,2-c]pyridine-7-carboxamido)spiro[3.3]heptane-2-carboxylic acid] | < 0.001 | 0.059
10 | O=C(O)CC1CC2(C1)CC(NC(=O)c1cc(OC(F)F)cc3cnn(Cc4ccc(-c5ccccc5)cc4)c13)C2 (centres unmarked) [Example 165, (Ra)-2-(6-(1-([1,1′-Biphenyl]-4-ylmethyl)-5-(difluoromethoxy)-1H-indazole-7-carboxamido)spiro[3.3]heptan-2-yl)acetic acid] | 0.001 | < 0.025
11 | CCOc1cc(-c2ccc(C(C)n3ccc4c(F)ccc(C(=O)NC5CC6(C5)CC(C(=O)O)C6)c43)cc2)ccn1 (racemic) [Example 118, (Sa)-6-(1-((racemic)-1-(4-(2-ethoxypyridin-4-yl)phenyl)-ethyl)-4-fluoro-1H-indole-7-carboxamido)spiro[3.3]heptane-2-carboxylic acid] | 0.0026 | 0.031

Next, values leading:

Row | IC50 (EP4) [µM] | IC50 (EP2) [µM] | SMILES
12 | < 0.001 | 0.082 | COc1ccc2cc(-c3ccc(Cn4ncc5c(Cl)ccc(C(=O)NC6CC7(CC(CC(=O)O)C7)C6)c54)cc3)ccc2n1 (centres unmarked) [Example 146, (Ra)-2-(6-(4-Chloro-1-(4-(2-methoxyquinolin-6-yl)benzyl)-1H-indazole-7-carboxamido)spiro[3.3]heptan-2-yl)acetic acid]
13 | < 0.001 | < 0.025 | CCOc1cc(-c2ccc(Cn3ncc4c(Cl)ccc(C(=O)NC5CC6(C5)CC(C(=O)O)C6)c43)cc2)ccn1 (centres unmarked) [Example 79, (Sa)-6-(4-chloro-1-(4-(2-ethoxypyridin-4-yl)benzyl)-1H-indazole-7-carboxamido)spiro[3.3]heptane-2-carboxylic acid]
14 | < 0.001 | 0.078 | CN(C)c1cc(-c2ccc(Cn3ccc4c(F)ccc(C(=O)NC5CC6(C5)CC(C(=O)O)C6)c43)cc2)ccn1 (centres unmarked) [Example 22, 6-(1-(4-(2-(dimethylamino)pyridin-4-yl)benzyl)-4-fluoro-1H-indole-7-carboxamido)spiro[3.3]heptane-2-carboxylic acid]
15 | 0.0047 | < 0.025 | COc1cccc(-c2ccc(C(C)n3ncc4c(Cl)ccc(C(=O)NC5CC6(C5)CC(C(=O)O)C6)c43)cc2)c1 (racemic) [Example 122, (Sa)-6-(4-chloro-1-((racemic)-1-(3′-methoxy-[1,1′-biphenyl]-4-yl)-ethyl)-1H-indazole-7-carboxamido)spiro[3.3]heptane-2-carboxylic acid]
16 | < 0.001 | < 0.025 | COc1cc(C#N)cc(-c2ccc(Cn3ccc4c(F)ccc(C(=O)NC5CC6(C5)CC(C(=O)O)C6)c43)cc2)c1 (centres unmarked) [Example 49, (Sa)-6-(1-((3’-cyano-5’-methoxy-[1,1′-biphenyl]-4-yl)methyl)-4-fluoro-1H-indole-7-carboxamido)spiro[3.3]heptane-2-carboxylic acid]
17 | < 0.001 | 0.09 | CNC(=O)c1ccc(-c2ccc(Cn3ccc4c(F)ccc(C(=O)NC5CC6(C5)CC(C(=O)O)C6)c43)cc2)cn1 (centres unmarked) [Example 63, (Sa)-6-(4-fluoro-1-(4-(6-(methylcarbamoyl)pyridin-3-yl)benzyl)-1H-indole-7-carboxamido)spiro[3.3]heptane-2-carboxylic acid]
18 | < 0.001 | < 0.025 | O=C(NC1CC2(C1)CC(C(=O)O)C2)c1ccc(Cl)c2cnn(Cc3ccc(C4=CCCCC4)c(F)c3)c12 (centres unmarked) [Example 81, (Sa)-6-(4-chloro-1-((2-fluoro-2′3′4′5′-tetrahydro-[1,1’-biphenyl]-4-yl)methyl)-1H-indazole-7-carboxamido)spiro[3.3]heptane-2-carboxylic acid]
19 | < 0.001 | < 0.025 | O=C(NC1CC2(C1)CC(C(=O)O)C2)c1ccc(Cl)c2cnn(Cc3ccc(C4=CCCC4)c(F)c3)c12 (centres unmarked) [Example 82, (Sa)-6-(4-chloro-1-(4-(cyclopent-1-en-1-yl)-3-fluorobenzyl)-1H-indazole-7-carboxamido)spiro[3.3]heptane-2-carboxylic acid]
20 | < 0.001 | 0.027 | CCOc1cc(-c2ccc(Cn3ccc4c(F)ccc(C(=O)NC5CC6(C5)CC(C(=O)O)C6)c43)cc2)ccn1 (centres unmarked) [Example 48, (Sa)-6-(1-(4-(2-ethoxypyridin-4-yl)benzyl)-4-fluoro-1H-indole-7-carboxamido)spiro[3.3]heptane-2-carboxylic acid]
21 | 0.0014 | < 0.025 | COc1c(Cl)cc(C(=O)NC2CC3(CC(CC(=O)O)C3)C2)c2c1cnn2Cc1ccc(-c2ccccc2)cc1 (centres unmarked) [Example 171, (Ra)-2-(6-(1-([1,1′-Biphenyl]-4-ylmethyl)-5-chloro-4-methoxy-1H-indazole-7-carboxamido)spiro[3.3]heptan-2-yl)acetic acid]
22 | < 0.001 | 0.03 | O=C(NC1CC2(C1)CC(C(=O)O)C2)c1cc(OC(F)F)cc2cnn(Cc3ccc(-c4ccccc4)cc3)c12 (centres unmarked) [Example 163]
23 | < 0.001 | < 0.025 | COc1cc(F)cc(-c2ccc(Cn3ccc4c(F)ccc(C(=O)NC5CC6(C5)CC(C(=O)O)C6)c43)cc2)c1 (centres unmarked) [Example 53, (Sa)-6-(4-fluoro-1-((3’-fluoro-5’-methoxy-[1,1′-biphenyl]-4-yl)methyl)-1H-indole-7-carboxamido)spiro[3.3]heptane-2-carboxylic acid]
24 | < 0.001 | 0.063 | COc1ccc(C(=O)NC2CC3(CC(CC(=O)O)C3)C2)c2c1cnn2Cc1ccc(-c2ccccc2)cc1 (centres unmarked) [Example 161, (Ra)-2-(6-(1-([1,1′-Biphenyl]-4-ylmethyl)-4-methoxy-1H-indazole-7-carboxamido)spiro[3.3]heptan-2-yl)acetic acid]
25 | < 0.001 | 0.03 | CNC(=O)c1cccc(-c2ccc(Cn3ncc4c(Cl)ccc(C(=O)NC5CC6(C5)CC(C(=O)O)C6)c43)cc2)n1 (centres unmarked) [Example 85, (Sa)-6-(4-chloro-1-(4-(6-(methylcarbamoyl)pyridin-2-yl)benzyl)-1H-indazole-7-carboxamido)spiro[3.3]heptane-2-carboxylic acid]
26 | < 0.001 | 0.079 | COc1ccc(-c2ccc(Cn3ccc4c(F)ccc(C(=O)NC5CC6(C5)CC(C(=O)O)C6)c43)cc2)cc1F (centres unmarked) [Example 47, (Sa)-6-(4-fluoro-1-((3’-fluoro-4’-methoxy-[1,1′-biphenyl]-4-yl)methyl)-1H-indole-7-carboxamido)spiro[3.3]heptane-2-carboxylic acid]
27 | < 0.001 | < 0.025 | O=C(NC1CC2(C1)CC(C(=O)O)C2)c1ccc(F)c2ccn(Cc3ccc4c(Br)cccc4c3)c12 (centres unmarked) [Example 43]
28 | < 0.001 | < 0.025 | CCOc1nccc(-c2ccc(Cn3ncc4c(Cl)ccc(C(=O)NC5CC6(C5)CC(C(=O)O)C6)c43)cc2)n1 (centres unmarked) [Example 84, (Sa)-6-(4-chloro-1-(4-(2-ethoxypyrimidin-6-yl)benzyl)-1H-indazole-7-carboxamido)spiro[3.3]heptane-2-carboxylic acid]
